Tested on: plasma GH
Assay: suppression of plasma GH after rGHRH challenge in rat
Assay type: in vivo
Conditions: rat studies (GH and IGF-1 suppression)
Experimental: The in vivo pharmacological efficacy of paltusotine has been examined in rat and dog. In the rat, acute efficacy was evaluated by examining the suppression of plasma GH in response to a challenge with rat growth hormone releasing hormone (rGHRH). […] The effects of chronic, oral, 14-day administration of paltusotine were evaluated by measuring the sustained suppression of IGF-1 in the rat.

SMILES: C[C@@H](O)[C@@H]1NC(=O)[C@H](CCCCN)NC(=O)[C@@H](Cc2c[nH]c3ccccc23)NC(=O)[C@H](Cc2ccccc2)NC(=O)[C@@H](NC(=O)[C@H](N)Cc2ccccc2)CSSC[C@@H](C(=O)N[C@H](CO)[C@@H](C)O)NC1=O [Octreotide, reference compound]
- maximal effects as positive control: maximal effects similar to orally administered paltusotine
